From patent US10463690B2, “Method and compositions for treating cancerous tumors” (priority 2016, dated 2019)

Columns and labels:
tumor = details: animal experiments; cited from earlier work
[1] = format: in vivo, Mice (SK1IPYMT 4913×SK1FVB)
Text: The purpose was to see how and where the test product spread throughout the body. Mice were euthanized so that internal cavity could be examined. Organs were cut in half for inspection of the extent of saturation.

[2] = placed on rats in a 60% of the body 3rd degree burn; cited from earlier work

NCCCC(N)(C(=O)O)C(F)F (stereo not shown) [DFMO, difuoromethylornithine]
effect on tumor growth (tumor): reduced tumor growth

CN(C)c1ccc2nc3ccc(=[N+](C)C)cc-3sc2c1 [methylene blue, Methylene blue]
distribution of dye after injection into kidney ([1]; kidney injection): The entire kidney got saturated and the dye got into the urine but did not spread throughout the body
distribution of dye after injection into liver ([1]; liver injection): The dye did not spread past the injection site in the liver

[O][Cl+][O-] [ClO2, Chlorine dioxide]
toxicity [2]: no toxicity was indicated
